The record followed here is article PMC5708805, “Novel molecular imaging ligands targeting matrix metalloproteinases 2 and 9 for imaging of unstable atherosclerotic plaques” (PLoS ONE, 2017).

What all share (assay type): biochemical
One experiment addresses T1, MMP9 (Homo sapiens, UniProt P14780).
T1 construct: purchased AnaSpec, San Jose, USA
The experiment is described as follows: In vitro fluorometric MMP inhibition assay (SensoLyte 520 MMP-9). Particulars: for Selectivity MMP1/MMP9: ratio of IC50 values, MMP1 IC50 divided by MMP9 IC50; for IC50: mean ± SD of three independent experiments in duplicate. The method, then: (§1) The inhibitory potency and selective binding of MMP-ligands was investigated by examining their capacity to block MMP1, MMP2 and MMP9 activity, using in vitro fluorometric assays (SensoLyte^TM 520 MMP-1, SensoLyte^TM 520 MMP-2, SensoLyte^TM 520 MMP-9; AnaSpec, San Jose, USA). Assay buffer was warmed to 37°C and used to dilute the reference inhibitor N-isobutyl-N-(4-methoxyphenylsulfonyl)glycyl hydoxamic acid (NNGH 1:100), calibration standard (1:50), substrate and enzyme (1:60). Components were loaded into a 96-well plate. MMP ligands 10a-d were also aliquoted to the respective 96-well plate at varying concentrations (10pM, 100pM, 1nM, 10nM, 100nM, 1μM, 10 μM and 100 μM), followed by incubation at 37°C for 30 minutes. Reactions were initiated by addition of the substrate to the respective wells, after which fluorescence generated was measured using a microplate reader (Synergy HT Multi-detection Microplate Reader, BioTek, […]) continuously for 30 minutes at 60 second intervals. Data analysis was conducted using Sigma Plot and Microsoft Excel.

A further experiment concerns the target T2, MMP2 (Homo sapiens, UniProt P08253).
T2 construct: purchased AnaSpec, San Jose, USA
T2 sequence (P08253 110-660): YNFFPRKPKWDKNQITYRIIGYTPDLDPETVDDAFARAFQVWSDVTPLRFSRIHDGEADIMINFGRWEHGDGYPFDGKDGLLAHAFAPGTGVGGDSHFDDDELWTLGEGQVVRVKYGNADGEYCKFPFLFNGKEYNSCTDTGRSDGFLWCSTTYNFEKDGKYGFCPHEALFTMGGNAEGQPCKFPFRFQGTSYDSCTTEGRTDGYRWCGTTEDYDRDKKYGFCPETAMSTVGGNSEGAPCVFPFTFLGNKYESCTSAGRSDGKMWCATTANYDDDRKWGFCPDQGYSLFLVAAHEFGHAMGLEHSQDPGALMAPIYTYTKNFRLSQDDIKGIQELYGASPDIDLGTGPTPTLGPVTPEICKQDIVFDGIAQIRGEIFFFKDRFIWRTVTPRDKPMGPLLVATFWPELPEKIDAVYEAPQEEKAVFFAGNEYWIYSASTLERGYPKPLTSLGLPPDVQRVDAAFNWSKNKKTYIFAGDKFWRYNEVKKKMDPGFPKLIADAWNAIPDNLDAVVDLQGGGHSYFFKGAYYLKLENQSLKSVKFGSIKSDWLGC
The experiment is described as follows: In vitro fluorometric MMP inhibition assay (SensoLyte 520 MMP-2). Particulars: for Selectivity MMP1/MMP2: ratio of IC50 values, MMP1 IC50 divided by MMP2 IC50; for IC50: mean ± SD of three independent experiments in duplicate. The method, then:
as §1

The target of the next experiment is T3, MMP1 (Homo sapiens, UniProt P03956).
T3 construct: purchased AnaSpec, San Jose, USA
T3 sequence (P03956 100-469): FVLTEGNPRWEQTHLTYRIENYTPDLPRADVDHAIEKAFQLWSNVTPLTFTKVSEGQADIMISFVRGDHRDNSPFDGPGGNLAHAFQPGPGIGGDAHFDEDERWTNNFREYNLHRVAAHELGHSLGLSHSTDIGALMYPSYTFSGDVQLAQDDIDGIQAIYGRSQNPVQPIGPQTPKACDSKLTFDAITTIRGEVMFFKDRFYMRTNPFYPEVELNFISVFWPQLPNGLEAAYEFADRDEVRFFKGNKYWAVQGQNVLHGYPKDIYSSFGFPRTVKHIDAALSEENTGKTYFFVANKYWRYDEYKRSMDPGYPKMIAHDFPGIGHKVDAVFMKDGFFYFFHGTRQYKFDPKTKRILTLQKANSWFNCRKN
The experiment is described as follows: In vitro fluorometric MMP inhibition assay (SensoLyte 520 MMP-1). As to conditions: mean ± SD of three independent experiments in duplicate. The method, then: as §1

The structures appear in SMILES notation.

T1 sequence (P14780 94-707, species assumed): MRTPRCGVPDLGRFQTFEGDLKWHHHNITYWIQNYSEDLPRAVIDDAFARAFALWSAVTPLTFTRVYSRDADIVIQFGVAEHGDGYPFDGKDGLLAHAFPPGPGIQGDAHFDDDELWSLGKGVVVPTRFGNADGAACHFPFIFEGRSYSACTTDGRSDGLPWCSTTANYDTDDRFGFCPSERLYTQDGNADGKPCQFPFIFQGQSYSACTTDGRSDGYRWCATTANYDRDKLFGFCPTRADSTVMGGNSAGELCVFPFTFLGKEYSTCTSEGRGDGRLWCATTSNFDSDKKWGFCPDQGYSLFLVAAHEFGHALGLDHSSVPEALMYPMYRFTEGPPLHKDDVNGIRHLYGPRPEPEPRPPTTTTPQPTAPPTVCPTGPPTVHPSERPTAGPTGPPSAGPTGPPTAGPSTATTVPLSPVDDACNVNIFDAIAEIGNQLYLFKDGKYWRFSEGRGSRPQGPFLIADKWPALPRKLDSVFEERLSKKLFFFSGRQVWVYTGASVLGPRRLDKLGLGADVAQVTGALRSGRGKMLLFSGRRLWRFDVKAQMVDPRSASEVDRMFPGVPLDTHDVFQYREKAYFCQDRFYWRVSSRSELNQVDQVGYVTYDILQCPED

Consider `O=C(O)CN(CC(=O)NO)S(=O)(=O)c1ccc(Oc2ccccc2)cc1` [Compound 10a, ([4-Phenoxy-benzenesulphonyl]-hydroxycarbamoylmethyl-amino) acetic acid], for which, on MMP9, the “Selectivity MMP1/MMP9” value was 387. The “Selectivity MMP1/MMP2” value at MMP2 was determined as 884.

A word on the IC50: it is the point on the concentration scale where inhibition reaches its midpoint. As to `O=C(O)CN(CC(=O)NO)S(=O)(=O)c1ccccc1` [Compound 4a, 2-(N-(2(hydroxyamino)-2-oxoethyl)phenylsulfonamido) acetic acid], on MMP9, the IC50 was 14 ± 1.05 nM and the “Selectivity MMP1/MMP9” value was 3.64. Also, on MMP2, the IC50 stood at 39 ± 0.16 nM and the “Selectivity MMP1/MMP2” value was 1.31. Also, the IC50 at MMP1 is 51 ± 0.1 nM.

In the case of `O=C(O)CN(CC(=O)NO)S(=O)(=O)c1ccc(I)cc1` [Compound 4c, 2-(4-Iodo-N-(2-hydroxyamino)-2-oxoethyl) phenylsufonamido acetic acid], the IC50 on MMP9 stood at 11 ± 1.14 nM; on MMP2, 27 ± 1 nM; on MMP1, 59 ± 0.17 nM. Moreover, the “Selectivity MMP1/MMP9” value at MMP9 is 5.36. For the same compound, the “Selectivity MMP1/MMP2” value on MMP2 came out at 2.19.

Regarding `O=C(O)CN(CC(=O)NO)S(=O)(=O)c1ccc(Br)cc1` [Compound 4d, 2-(4-bromo-N-(2-hydroxyamino)-2-oxoethyl) phenylsufonamido acetic acid], at MMP9, the IC50 amounted to 23 ± 0.21 nM and the “Selectivity MMP1/MMP9” value is 2.74. Also, at MMP2, the IC50 stood at 19 ± 0.19 nM and the “Selectivity MMP1/MMP2” value is recorded as 3.32. The IC50 at MMP1 was found to be 63 ± 0.13 nM.

In the case of `O=C(O)CN(CC(=O)NO)S(=O)(=O)c1ccc(F)cc1` [Compound 4b, 2-(4-fluoro-N-(2-hydroxyamino)-2oxoethyl)phenylsufonamido acetic acid], the results for the IC50 at MMP9, at MMP2 and at MMP1 were 21 ± 0.19 nM, 12 ± 0.17 nM and 75 ± 0.15 nM, respectively. The “Selectivity MMP1/MMP9” value on MMP9 was 3.57. Also, on MMP2, the “Selectivity MMP1/MMP2” value amounted to 6.25.

As to `O=C(O)CN(CC(=O)NO)S(=O)(=O)c1ccc(Oc2ccc(I)cc2)cc1` [Compound 10c, ([4-(4-Iodo-phenoxy)-benzenesulphonyl]-hydroxycarbamoylmethyl-amino) acetic acid], the IC50 on MMP9 was 1.95 ± 1.1 nM; on MMP2, 0.87 ± 0.4 nM; at MMP1 it was 910 ± 560 nM. The “Selectivity MMP1/MMP9” value at MMP9 was found to be 467. Besides, the “Selectivity MMP1/MMP2” value at MMP2 is on record as 1.05 x 10^3.

Take `O=C(O)CN(CC(=O)NO)S(=O)(=O)c1ccc(Oc2ccc(F)cc2)cc1` [Compound 10b]: the “Selectivity MMP1/MMP9” value at MMP9 is listed as 1.74 x 10^4. For the same compound, the “Selectivity MMP1/MMP2” value on MMP2 was 3.60 x 10^4.

Take `O=C(O)CN(CC(=O)NO)S(=O)(=O)c1ccc(Oc2ccc(Br)cc2)cc1` [Compound 10d, ([4-(4-Bromo-phenoxy)-benzenesulphonyl]-hydroxycarbamoylmethyl-amino) acetic acid]: the IC50 worked out at 1.61 ± 1.41 nM at MMP9, 7.64 ± 1.43 nM on MMP2 and 1320 ± 790 nM on MMP1. Further, the “Selectivity MMP1/MMP9” value at MMP9 came out at 820. On MMP2, the “Selectivity MMP1/MMP2” value came to 173.

For the compound `O=C(O)CN(CC(=O)NO)S(=O)(=O)c1ccc(Cl)cc1` [Compound 4e, 2-(4-chloro-N-(2-hydroxyamino)-2-oxoethyl)phenylsufonamido acetic acid], at MMP9, the IC50 was 18 ± 0.16 nM and the “Selectivity MMP1/MMP9” value is 3.39. Moreover, at MMP2, the IC50 is 41 ± 0.19 nM and the “Selectivity MMP1/MMP2” value was found to be 1.49. For the same compound, the IC50 at MMP1 came to 61 ± 0.11 nM.
